The test system of test [1] is Reactive oxygen species (ROS). The test can be described thus: Reactive oxygen species (ROS) in BAL cell fluid, COPD model. Type of test: in vivo, C57BL/6N mice. The following applies: HTHQ 10 and 20 mg/kg/day oral; tobacco smoke 10 days + LPS; compared to COPD group. The procedure: 6 week old male SPF C57BL/6N mice, 20 to 25 g of body weight, were purchased from CORETEC INC. (South Korea).
The tests were conducted as follows. The mice in the COPD (chronic obstructive pulmonary disease) model group of the test groups were exposed to tobacco smoke for 1 hour per day (8 cigarettes/day) for 10 days and LPS (5 μg/50 μL/mouse) was intranasally administered to the mice on day 8 after the start of the tests. […]
The mice in the test groups were euthanized 72 hours after the LPS administration and the mice in the normal control group were euthanized on day 11 after the start of the tests by intraperitoneal injection of pentobarbital (Hanrimu pharmaceutical, South Korea) at 50 mg/kg and then the bronchi were excised. […] After preparing slide samples from 100 μL of BAL cell fluid using Cytospin (4° C., 1000 rpm×5 min), the cell numbers of inflammatory cells (neutrophil, macrophages) present in the BAL fluid were counted using a Diff-Quik stain kit.
Reactive oxygen species (ROS) amounts in BAL cell fluid were measured. […] Reactive oxygen species (ROS) amounts within cells were measured at an excitation wavelength of 485 nm and a fluorescence wavelength of 530 nm using a fluorescence plate analyzer (a product from PerkinElmer, Inc.).

Another test concerns IL-13. The test can be described thus: IL-13 level in BAL fluid (ELISA), ovalbumin asthma model. Type of test: in vivo, BALB/c female mice. The following applies: HTHQ 20 and 40 mg/kg/day oral; compared to OVA group. The procedure:
6 week old BALB/c female mice were purchased and the mice were divided into 5 groups with 5 animals per group shown in Table 3 below after habituation breeding of about 2 weeks.
The test was conducted on the schedule of sensitization, causing diseases and administration of test materials shown in FIG. 12. “IP” in FIG. 12 refers to ovalbumin sensitization treatment by the intraperitoneal administration of ovalbumin/aluminum hydroxide, and “IH” refers to inhalation exposure treatment of ovalbumin, and “PO” refers to the administration of the test materials. […]
All mice were euthanized by intraperitoneal injection of pentobarbital (Hanrimu pharmaceutical, South Korea) at 50 mg/kg and the bronchi were excised on day 25 of the test. […] After preparing slide samples from 100 μL of BAL cell fluid using Cytospin (4° C., 1000 rpm×5 min), the cell numbers of inflammatory cells (eosinophils, macrophages, lymphocytes and neutrophils) present in the BAL fluid were counted using a Diff-Quik stain kit.
The supernatant of the BAL fluid stored was taken out of the super-cryostat and IL-4, IL-5 and IL-13 levels were measured as the pro-inflammatory cytokine contents in the supernatant of the BAL fluid. A quantitative ELISA kit (a product from R&D systems) and a microplate reader (a product from Bio-Rad Laboratories, Inc.) were used for the measurement and the measurement wavelength was 450 nm.

This note sets out measurements from patent US20180049996A1, “THERAPEUTIC AGENT FOR CHRONIC RESPIRATORY DISEASE AND COMPOSITION FOR INHIBITING CARDIAC FIBROSIS” (NIPPON HYPOX LABORATORIES INCORPORATED, priority 2015, published 2018).

The structures appear in SMILES notation.

Take `CCCCCCOc1cc(C)c(O)c(C)c1C` [HTHQ, 2,3,5-trimethylhydroquinone-1-hexyl ether]: in test [1], the “amount of reactive oxygen species (ROS) in BAL cell fluid” value is listed as “effectively reduced”. Besides, in the test with IL-13, the “IL-13 content in BAL fluid” value is reported as “significantly reduced”.
